Consider 14 molecules from patent US10611740B2, “Aryl dihydro-2H-benzo[b][1,4]oxazine sulfonamide and related compounds for use as agonists of RORγ and the treatment of disease” (Lycera Corporation, priority 2015, dated 2020).

What is called EC50 is the concentration needed to bring the measured effect to its halfway point. Higher therefore signals weaker potency.

One test addresses T1, RORγ-LBD (Homo sapiens, UniProt P51449).
T1 construct: made in house; host or cells: SF9 cells (baculovirus)
T1 sequence (P51449 269-508 limits assumed): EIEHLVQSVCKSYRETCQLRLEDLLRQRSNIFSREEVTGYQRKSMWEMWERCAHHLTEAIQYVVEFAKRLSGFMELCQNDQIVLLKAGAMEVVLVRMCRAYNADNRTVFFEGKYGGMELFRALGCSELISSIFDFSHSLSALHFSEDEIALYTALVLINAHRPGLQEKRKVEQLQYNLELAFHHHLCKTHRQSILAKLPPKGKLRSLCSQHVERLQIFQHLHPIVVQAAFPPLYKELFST
The test can be described thus: RORγ-Ligand Binding Domain (LBD) TR-FRET Assay.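 On TR-FRET Assay Max Response: 665/615 nm ratio relative to signal without ursolic acid or compound set at 100.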 Format: biochemical. The method, boiled down: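 Lysate from SF9 cells expressing His-RORγ-LBD is diluted to about 3 nM final in 50 mM Tris pH 7.0 assay buffer. A biotin-tagged SRC1 LXXLL peptide goes in at 200 nM final, plus ursolic acid at 2 μM final. Test compounds carry 1% DMSO final; signal read by TR-FRET.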
On the technique in general: TR-FRET usually uses a lanthanide donor and a delayed reading to cut background.

The next test has as its target T2, Gal4-RORγ-LBD (Homo sapiens, UniProt P51449).
T2 construct: expressed in transfected cells; host or cells: HEK-293 cells (pcDNA3.1neo plasmid)
T2 sequence (P51449 269-508 limits assumed): T1 sequence (P51449 269-508 limits assumed)
Briefly: Gal4-RORγ Luciferase Reporter Assay in HEK-293T Cells. To be noted: HEK-293 cells. Format: cell-based. The gist of the method: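 In transfected HEK-293 cells (Gal4-RORγ-LBD, Gal4-luciferase), test agents with 2 μM ursolic acid were incubated overnight at 37 °C before luminescent detection. Values are relative to the ursolic-acid-free, compound-free signal (100).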
On the technique in general: Reporter assays use an easily measured gene product as a stand-in for the process of interest.

Setting [1] is: luciferase reporter, with 2 μM ursolic acid.

The structures appear in SMILES notation. Where only a bound is given, the exact number is not on record here.

`CC(=O)N[C@H]1C[C@@](C[C@H]2CN(S(=O)(=O)c3cccc(C(F)(F)F)c3)c3cc(-c4cc(F)ccc4F)ccc3O2)(C(=O)O)C1` [Compound 89A, (1s,3R)-3-acetamido-1-(((S)-6-(2,5-difluorophenyl)-4-((3-(trifluoro-methyl)phenyl)sulfonyl)-3,4-dihydro-2H-benzo[b][1,4]oxazin-2-yl)methyl)cyclobutane-1-carboxylic acid]: on RORγ-LBD, the EC50 is 500 to 5000 nM and the “TR-FRET Assay Max Response” value is listed as “*** (The symbol “***” indicates a value in the range of greater than 150 to 200)”. Further, on Gal4-RORγ-LBD (2 μM ursolic acid), the 50% effective concentration (EC50) lay in the range of 500 to 5000 nM and the “Gal4-RORγ Assay Max Response” value is listed as “** (The symbol “**” indicates a value in the range of greater than 90 to 150)”.
`Cn1cnc(-c2ccc3c(c2)N(S(=O)(=O)c2cccc(C(F)(F)F)c2)C[C@H](CCC(=O)O)O3)c1` [Compound 4Q, (S)-3-(6-(1-methyl-1H-imidazol-4-yl)-4-((3-(trifluoromethyl)-phenyl)sulfonyl)-3,4-dihydro-2H-benzo[b][1,4]oxazin-2-yl)propanoic acid]: at RORγ-LBD, the EC50 was 500 to 5000 nM and the “TR-FRET Assay Max Response” value is recorded as “** (The symbol “**” indicates a value in the range of greater than 90 to 150)”. At Gal4-RORγ-LBD (setting [1]), this molecule yielded an EC50 of more than 10000 nM.
With `C[C@H](CC(=O)O)[C@H]1CN(S(=O)(=O)c2cccc(C(F)(F)F)c2)c2cc(-c3cc(F)cc(F)c3Cl)ccc2O1` [Compound 80B, (R)-3-((S)-6-(2-chloro-3,5-difluorophenyl)-4-((3-(trifluoromethyl)phenyl)sulfonyl)-3,4-dihydro-2H-benzo[b][1,4]-oxazin-2-yl)butanoic acid], on RORγ-LBD, the concentration giving a half-maximal response (EC50) is less than 500 nM and the “TR-FRET Assay Max Response” value is “** (The symbol “**” indicates a value in the range of greater than 90 to 150)”. Moreover, at Gal4-RORγ-LBD (2 μM ursolic acid), the EC50 lay within 500 to 5000 nM and the “Gal4-RORγ Assay Max Response” value was “** (The symbol “**” indicates a value in the range of greater than 90 to 150)”.
Regarding `Cn1cc(C(=O)NC[C@H]2CN(S(=O)(=O)c3cccc(C(F)(F)F)c3)c3cc(-c4cc(F)ccc4F)ccc3O2)cn1` [Compound 30AH, (S)-N-((6-(2,5-difluorophenyl)-4-((3-(trifluoromethyl)phenyl)-sulfonyl)-3,4-dihydro-2H-benzo[b][1,4]oxazin-2-yl)methyl)-1-methyl-1H-pyrazole-4-carboxamide], on RORγ-LBD, the concentration giving a half-maximal response (EC50) was less than 500 nM and the “TR-FRET Assay Max Response” value is “*** (The symbol “***” indicates a value in the range of greater than 150 to 200)”. Further, on Gal4-RORγ-LBD (setting [1]), the 50% effective concentration (EC50) was less than 500 nM and the “Gal4-RORγ Assay Max Response” value was “** (The symbol “**” indicates a value in the range of greater than 90 to 150)”.
Take `COc1ccnc(-c2ccc3c(c2)N(S(=O)(=O)c2cccc(C(F)(F)F)c2)C[C@H](CCC(=O)O)O3)c1` [Compound 4F, (S)-3-(6-(4-methoxypyridin-2-yl)-4-((3-(trifluoromethyl)-phenyl)sulfonyl)-3,4-dihydro-2H-benzo[b][1,4]oxazin-2-yl)propanoic acid]: on RORγ-LBD, the EC50 is less than 500 nM and the “TR-FRET Assay Max Response” value is “**** (The symbol “****” indicates a value greater than 200)”. Also, at Gal4-RORγ-LBD (setting [1]), the EC50 lay in the range of 500 to 5000 nM and the “Gal4-RORγ Assay Max Response” value was “** (The symbol “**” indicates a value in the range of greater than 90 to 150)”.
In the same order, the values of `O=C(O)CC[C@H]1CN(S(=O)(=O)c2cccc(C(F)(F)F)c2)c2cc(-c3cc(Cl)cc(Cl)c3)ccc2O1` [Compound 2L, (S)-3-(6-(3,5-dichlorophenyl)-4-((3-(trifluoromethyl)phenyl)-sulfonyl)-3,4-dihydro-2H-benzo[b][1,4]oxazin-2-yl)propanoic acid] are less than 500 nM, “*** (The symbol “***” indicates a value in the range of greater than 150 to 200)”, less than 500 nM and “*** (The symbol “***” indicates a value in the range of greater than 150 to 200)”.
With `COc1cc(Cl)cc(-c2ccc3c(c2)N(S(=O)(=O)c2cccc(C(F)(F)F)c2)C[C@H](CC(C)(C)C(=O)O)O3)c1` [Compound 32AH, (S)-3-(6-(3-chloro-5-methoxy-phenyl)-4-((3-(trifluoromethyl)-phenyl)sulfonyl)-3,4-dihydro-2H-benzo[b][1,4]oxazin-2-yl)-2,2-dimethylpropanoic acid], at RORγ-LBD, the EC50 is less than 500 nM and the “TR-FRET Assay Max Response” value is “*** (The symbol “***” indicates a value in the range of greater than 150 to 200)”. Besides, on Gal4-RORγ-LBD (2 μM ursolic acid), the EC50 was less than 500 nM and the “Gal4-RORγ Assay Max Response” value is on record as “** (The symbol “**” indicates a value in the range of greater than 90 to 150)”.
Turning to `COc1cccc(-c2ccc3c(c2)N(S(=O)(=O)c2cccc(C(F)(F)F)c2)C[C@H](CCC(=O)N2CCS(=O)(=O)CC2)O3)c1` [Compound 23M, (S)-1-(1,1-dioxidothio-morpholino)-3-(6-(3-methoxyphenyl)-4-((3-(trifluoromethyl)phenyl)sulfonyl)-3,4-dihydro-2H-benzo[b][1,4]-oxazin-2-yl)propan-1-one], on RORγ-LBD, the EC50 was less than 500 nM and the “TR-FRET Assay Max Response” value is “**** (The symbol “****” indicates a value greater than 200)”. For the same molecule, on Gal4-RORγ-LBD (setting [1]), the 50% effective concentration (EC50) is less than 500 nM and the “Gal4-RORγ Assay Max Response” value is “*** (The symbol “***” indicates a value in the range of greater than 150 to 200)”.
For the molecule `CC(C)(CO)C(=O)NC[C@H]1CN(S(=O)(=O)c2cccc(C(F)(F)F)c2)c2cc(-c3cccc(C(F)(F)F)n3)ccc2O1` [Compound 30BI, (S)-3-hydroxy-2,2-dimethyl-N-((4-((3-(trifluoromethyl)-phenyl)sulfonyl)-6-(6-(trifluoromethyl)pyridin-2-yl)-3,4-dihydro-2H-benzo[b][1,4]-oxazin-2-yl)methyl)-propanamide], on RORγ-LBD, the concentration for a half-maximal effect (EC50) was less than 500 nM and the “TR-FRET Assay Max Response” value is reported as “*** (The symbol “***” indicates a value in the range of greater than 150 to 200)”. On Gal4-RORγ-LBD (setting [1]), the EC50 was 500 to 5000 nM and the “Gal4-RORγ Assay Max Response” value was “* (The symbol “*” indicates a value in the range of 25 to 90)”.
Taken in the same sequence, the figures for `CC(C)Oc1cccc(-c2ccc3c(c2)N(S(=O)(=O)c2cccc(C(F)(F)F)c2)C[C@H](CCC(=O)O)O3)c1` [Compound 2AV, (S)-3-(6-(3-isopropoxyphenyl)-4-((3-(trifluoromethyl)phenyl)-sulfonyl)-3,4-dihydro-2H-benzo[b][1,4]oxazin-2-yl)propanoic acid] were less than 500 nM, “**** (The symbol “****” indicates a value greater than 200)”, 500 to 5000 nM and “* (The symbol “*” indicates a value in the range of 25 to 90)”.
Take `CC(C)(C[C@H]1CN(S(=O)(=O)c2cccc(C(F)(F)F)c2)c2cc(-c3c(Cl)cccc3Cl)ccc2O1)C(=O)O` [Compound 32AU, (S)-3-(6-(2,6-dichlorophenyl)-4-((3-(trifluoromethyl)phenyl)-sulfonyl)-3,4-dihydro-2H-benzo[b][1,4]oxazin-2-yl)-2,2-dimethylpropanoic acid]: on RORγ-LBD, the 50% effective concentration (EC50) is less than 500 nM and the “TR-FRET Assay Max Response” value was “** (The symbol “**” indicates a value in the range of greater than 90 to 150)”. Moreover, on Gal4-RORγ-LBD (2 μM ursolic acid), the 50% effective concentration (EC50) was less than 500 nM and the “Gal4-RORγ Assay Max Response” value was “** (The symbol “**” indicates a value in the range of greater than 90 to 150)”.
As to `COc1ccccc1-c1ccc2c(c1)N(S(=O)(=O)c1cccc(C(F)(F)F)c1)C[C@H](CCC(=O)O)O2` [Compound 2T, (S)-3-(6-(2-methoxyphenyl)-4-((3-(trifluoromethyl)phenyl)-sulfonyl)-3,4-dihydro-2H-benzo[b][1,4]oxazin-2-yl)propanoic acid], at RORγ-LBD, the EC50 is less than 500 nM and the “TR-FRET Assay Max Response” value is recorded as “**** (The symbol “****” indicates a value greater than 200)”. For the same molecule, at Gal4-RORγ-LBD (setting [1]), the EC50 is less than 500 nM and the “Gal4-RORγ Assay Max Response” value was “*** (The symbol “***” indicates a value in the range of greater than 150 to 200)”.
Take `Cc1c(Cl)cccc1-c1ccc2c(c1)N(S(=O)(=O)c1cccc(C(F)(F)F)c1)C[C@H](CC(C)(C)C(=O)O)O2` [Compound 32AZ, (S)-3-(6-(3-chloro-2-methyl-phenyl)-4-((3-(trifluoromethyl)-phenyl)sulfonyl)-3,4-dihydro-2H-benzo[b][1,4]oxazin-2-yl)-2,2-dimethylpropanoic acid]: on RORγ-LBD, the half-maximal effective concentration (EC50) is less than 500 nM and the “TR-FRET Assay Max Response” value is on record as “** (The symbol “**” indicates a value in the range of greater than 90 to 150)”. In addition, on Gal4-RORγ-LBD (2 μM ursolic acid), the concentration giving a half-maximal response (EC50) was less than 500 nM and the “Gal4-RORγ Assay Max Response” value is on record as “** (The symbol “**” indicates a value in the range of greater than 90 to 150)”.
In the case of `COc1cncc(-c2ccc3c(c2)N(S(=O)(=O)c2cccc(C(F)(F)F)c2)C[C@H](CCC(=O)O)O3)n1` [Compound 4Y, (S)-3-(6-(6-methoxypyrazin-2-yl)-4-((3-(trifluoromethyl)-phenyl)sulfonyl)-3,4-dihydro-2H-benzo[b][1,4]oxazin-2-yl)propanoic acid], at RORγ-LBD, the EC50 is less than 500 nM and the “TR-FRET Assay Max Response” value was “**** (The symbol “****” indicates a value greater than 200)”. For the same molecule, at Gal4-RORγ-LBD (setting [1]), the EC50 lay within 500 to 5000 nM and the “Gal4-RORγ Assay Max Response” value is “* (The symbol “*” indicates a value in the range of 25 to 90)”.
